Experimental data as given in patent publication US9527889B2, “RFamide-related peptides and methods thereof” (THE REGENTS OF THE UNIVERSITY OF MICHIGAN, priority 2010, dated 2016).
“Also recorded” adds a separate entry of the source. Residues, ends and D or L forms follow the SMILES beside them. No end group written: not given here.

Key:
[1] = tested on: isolated adult rabbit cardiac myocytes; experiment: Sarcomere shortening in isolated adult rabbit cardiac myocytes; type: cell-based; details: pacing at 0.5 Hz and 1 Hz
Procedure: FIG. 7. A. Representative sarcomere shortening traces in isolated adult rabbit cardiac myocytes paced at 0.5 Hz. A signal-averaged recording from 10 traces was made in myocytes 1 day after isolation (n=3). Recordings show shortening before and 15 minutes after initiating perfusion with 10^−10 M hRFRP-1 or media (control) at 37° C.
Adult rat and rabbit ventricular cardiac myocytes were isolated as previously described (Westfall, M. V. Et al. (1997), Westfall, M. V. and Borton, A. R. (2003)). Hearts from Sprague-Dawley rats and New Zealand white rabbits were perfused and enzymatically digested to isolate myocytes; the protocol was approved by The University of Michigan University Committee on Use and Care of Animals (UCUCA) in accordance with university and federal regulatory guidelines. […]
Sarcomere shortening was detected using a video-based detection system (IonOptix, MA, USA) as described earlier (Westfall, M. V. and Borton, A. R. (2003)). […] Signal averaged data were analyzed to determine resting sarcomere length, shortening amplitude (peak shortening), shortening rate (departure velocity), and re-lengthening rate (return velocity), as previously described (Westfall, M. V. Et al. (1997), Westfall, M. V. and Borton, A. R. (2003)), in 7-20 myocytes from 3-4 rats for each peptide concentration, bis-1, and media.

[2] = tested on: isolated adult rat cardiac myocytes; type: cell-based; details: peptides at 10^−8M or 10^−7M; peak shortening, departure and return velocity
Excerpt: Adult rat and rabbit ventricular cardiac myocytes were isolated as previously described (Westfall, M. V. Et al. (1997), Westfall, M. V. and Borton, A. R. (2003)). Hearts from Sprague-Dawley rats and New Zealand white rabbits were perfused and enzymatically digested to isolate myocytes; the protocol was approved by The University of Michigan University Committee on Use and Care of Animals (UCUCA) in accordance with university and federal regulatory guidelines. Aliquots of isolated ventricular myocytes were plated on laminin-coated glass coverslips in serum-containing Dulbecco's Modified Eagle Media (Invitrogen, CA, US) supplemented with 5% fetal bovine serum, and 50 U/ml penicillin and 50 μg/ml streptomycin (pen/strep; Sigma-Aldrich, MO, US). Two hours later, media was replaced with serum-free M199 (Invitrogen) supplemented with 1.8 mM Ca^2+, 10 mM HEPES, 10 mM glutathione, and pen/strep. Rat myocytes were transferred to a stimulation chamber and electrically paced the day after isolation (Zornik, E. Et al. (1999), Westfall, M. V. Et al. (1997)). Media was changed daily for all myocyte preparations.
Sarcomere shortening was detected using a video-based detection system (IonOptix, MA, USA) as described earlier (Westfall, M. V. and Borton, A. R. (2003)). Rat myocytes were paced at 0.2 Hz and rabbit myocytes were paced at 0.5 Hz or 1.0 Hz for these studies. Recordings were made prior to application of each peptide concentration, the protein kinase C (PKC) inhibitor bisindolylmaleimide-1, (bis-1; CalBiochem/EMD, NJ, US), or media only (control, C) and at 1, 3, 5, 10 and 15 minutes after application of peptide, bis-1, or media. Signal averaged data were analyzed to determine resting sarcomere length, shortening amplitude (peak shortening), shortening rate (departure velocity), and re-lengthening rate (return velocity), as previously described (Westfall, M. V. Et al. (1997), Westfall, M. V. and Borton, A. R. (2003)), in 7-20 myocytes from 3-4 rats for each peptide concentration, bis-1, and media.

[3] = tested on: mouse heart; experiment: Echocardiography in mice after tail-vein injection; type: in vivo
Procedure: Echocardiograms were performed as previously described (Boluyl, M. O. Et al. (2004)) according to the recommendations of the American Society of Echocardiography. All echocardiography was performed by one registered echocardiographer. Female C57BL/6 mice were weighed to accurately calculate the amount of peptide delivered per kilogram body weight (kg bw). Animal use for echocardiography was approved by The University of Michigan UCUCA in accordance with university and federal regulatory guidelines. Physiological saline or peptide was intravenously delivered via tail-vein injections to a total volume of 150 μl to achieve 5 μmols or 500 ηmols hRFRP-1/kg bw. Each animal was used only once for an injectant, either physiological saline or peptide (n=4-5). […] Heart rate along with left ventricular end-systolic and end-diastolic dimensions were measured from the two-dimensional sector scans obtained from the parasternal long axis and apical four chamber views using the conventions of the American Society of Echocardiography. […] Left ventricular volumes were measured at end systole (Vols) and end diastole (Vold) and used to calculate stroke volume (SV=Vold−Vols) and ejection fraction (EF %=endocardial SV/endocardial Vold×100). Cardiac output (CO=endocardial SV×heart rate) was calculated from stroke volume and heart rate. […]

CSCC[C@H](N)C(=O)N1CCC[C@H]1C(=O)N[C@@H](Cc1cnc[nH]1)C(=O)N[C@@H](CO)C(=O)N[C@@H](Cc1ccccc1)C(=O)N[C@@H](C)C(=O)N[C@@H](CC(N)=O)C(=O)N[C@@H](CC(C)C)C(=O)N1CCC[C@H]1C(=O)N[C@@H](CC(C)C)C(=O)N[C@@H](CCCNC(=N)N)C(=O)N[C@@H](Cc1ccccc1)C(N)=O [hRFRP-1] (H-MPHSFANLPLRF-NH2)
arrhythmic beats and after-contractions [1]: not observed

LPLAFamide (LPLAF-NH2)
character relative to hRFRP-1 on myocyte contractile function (agonist, antagonist, reverse agonist; in words) [2]: hRFRP-1 antagonist
effect on the hRFRP-1-induced decrease of contractile performance in vivo ([3]; given with hRFRP-1, tail-vein injection): blocked the effects of hRFRP-1
effect on cardiac function in vivo when applied alone (echocardiographic parameters) ([3]; tail-vein injection): slight increase in cardiac function; also recorded: enhances cardiac function
